Assay results taken from patent US20250161312A1, “A METHOD FOR THE TREATMENT OF CHEMOTHERAPEUTIC DRUG-INDUCED NEPHROTOXICITY” (INSTITUT NATIONAL DE LA SANTÉ ET DE LA RECHERCHE MÉDICALE, priority 2022, published 2025).

Key:
[1] = test system: C57BL6/J mice; test: Sub-chronic cisplatin-induced kidney injury model; assay type: in vivo
Method: FIG. 1. Schematic representation of the different animal procedures. (A) Acute cisplatin-induced kidney injury. […] (B) Sub-chronic cisplatin-induced kidney injury. […] (C) KW-6002 administration schedule in the acute model. […] (D) KW-6002 administration schedule in the sub-chronic model.
Animal experiments were adapted from 63-64. Animal procedures were performed in 8 to 10 weeks old male C57B16/J mice (Janvier Labs). Mice were fed a laboratory standard diet with water and food ad libitum and were kept under constant environmental conditions with a 12-hour light-dark cycle. Istradefylline (KW-6002; Tocris) was dissolved in a carrier solution consisting in 15% DMSO, 15% cremophor (Sigma), 70% saline solution (vehicle). Cisplatin (Accord Healthcare) was dissolved in saline solution. […] Three days after this single injection, animals were sacrificed by cervical dislocation (FIG. 1A).
Prior sacrifice by cervical dislocation, retro-orbital blood samples were collected in heparinized tubes and centrifuged for 10 min at 2000 rpm at room temperature. Renal function was assessed by Blood urea nitrogen (BUN) measurement using a AU480 Chemistry Analyzer (Beckman Coulter). At the time of sacrifice, kidneys or LLC1 tumors were harvested and stored in either “RNA later” solution (Thermo Fisher), 4% neutral buffered formalin or snap-frozen in liquid nitrogen.
Formalin-fixed and paraffin-embedded sections (3 μm thick) were stained with Hematoxylin and Eosin (Sigma Aldrich) or Periodic Acid-Schiff (Sigma-Aldrich). Slices were scored by a nephropathologist in a blinded manner. A kidney injury score grading scale from 0 to 5 was used to assess the severity of the injury as follow: 0=no lesions, 1=minimal injury characterized by occurrence of necrosis and debris; 2=mild injury with single cell necrosis, pyknotic cells, and apoptosis; 3=moderate injury characterized by tubular distension, vacuolation, and some cellular debris, 4=severe injury with occasional hyaline casts observed, patchy epithelial necrosis in all segments, loss of epithelial lining; and 5=very severe injury characterized by extensive tubular epithelial necrosis in all segments, loss of epithelial layer from many tubules widespread intraluminal cellular debris, and frequent hyaline casts particularly prominent in the medullary region (67).
Total RNA from kidney samples was extracted with phenol/chloroform and subsequently precipitated in isopropanol as described previously (71). Total RNA from cultured renal cells was extracted using RNeasy Mini kit (Qiagen) following manufacturer's recommendations.
Reverse transcription was performed on 1 μg of RNA using high-capacity cDNA reverse transcription kit (Thermo Fisher), according the manufacturer's recommendation. Real time PCR was performed on a StepOne device using Taqman Gene Expression Master Mix (Thermo Fisher), following manufacturer's recommendations. […]

[2] = test system: RPTEC/hTERT cells; test: Cell viability assay (CellTiter-Glo); assay type: cell-based, human; details: cisplatin 50 μM, KW-6002 0.5-12.8 μM, 48 hours
Method: Cells were cultured in DMEM/F12 medium (Dulbecco's modified Eagle's medium and Ham's F12 medium, Thermo Fisher) supplemented with 1% penicillin/streptomycin, 5 pmol/L triiodo-L-thyronine, 10 ng/ml recombinant human epidermal growth factor, 3.5 μg/mL ascorbic acid, 5.0 μg/mL human transferrin, 5.0 μg/mL insulin, 25 ng/mL prostaglandin E1, 25 ng/ml hydrocortisone, 8.65 ng/mL sodium selenite, 0.1 mg/mL G418 and 1.2 g/L sodium bicarbonate (Sigma). Lewis lung carcinoma mouse LLC1 cells were cultured in DMEM glutamax (Thermo Fisher) containing 10% fetal calf serum and 1% penicillin/streptomycin. Cells were cultured at 37° C. in a humidified atmosphere of 5% CO2.
Viability was assessed using the CellTiter-Glo® Luminescent Cell Viability Assay (Promega) according to manufacturer's recommendations.

[3] = test system: tumor cell transcriptome; test: Whole transcriptome analysis of LLC1 tumors; assay type: in vivo, mice
Method: RNA-seq libraries (n=5-6/group) were generated from 500 ng of total RNA using Illumina® TruSeq® Stranded mRNA Library Prep Kit v2. Briefly, following purification with poly-T oligo attached magnetic beads, the mRNA was fragmented using divalent cations at 94° C. for 2 min. The cleaved RNA fragments were copied into first-strand cDNA using reverse transcriptase and random primers. […] Surplus PCR primers were further removed by purification using AMPure XP beads (Beckman Coulter), and the final cDNA libraries were checked for quality and quantified using capillary electrophoresis. Sequencing was performed on the Illumina® Genome Hiseq4000 as single-end 50 base reads following Illumina's instructions. Reads were mapped onto the mm 10 assembly of Mus musculus genome using STAR v2.5.3a (72). Only uniquely aligned reads were kept for further analyses. Quantification of gene expression was performed using HTSeq-count v0.6.1p1 (73) and gene annotations from Ensembl releases 90 and 102 and “union” mode. Read counts were normalized across libraries with the method proposed by Ander et al. (74). […]

[4] = test system: C57BL6/J mice; test: Acute cisplatin-induced kidney injury model; assay type: in vivo
Method: Animal procedures were performed in 8 to 10 weeks old male C57B16/J mice (Janvier Labs). Mice were fed a laboratory standard diet with water and food ad libitum and were kept under constant environmental conditions with a 12-hour light-dark cycle. […] Three days after this single injection, animals were sacrificed by cervical dislocation (FIG. 1A).
Reverse transcription was performed on 1 μg of RNA using high-capacity cDNA reverse transcription kit (Thermo Fisher), according the manufacturer's recommendation. Real time PCR was performed on a StepOne device using Taqman Gene Expression Master Mix (Thermo Fisher), following manufacturer's recommendations. Expression levels of the following genes were evaluated using comparative CT method (2-deltaCT): Neutrophil Gelatinase Associated Lipocalin (NGAL, Assay IDs Hs00194353_ml and Mm01324470_m1), Kidney Injury Molecule-1 (KIM-1, Assay ID Hs00273334_ml and Mm00506686_m1), Tumor Necrosis Factor alpha (TNFα, Assay ID Hs00174128_m1 and Mm00443258_m1), Interleukin-6 (I16, Assay ID Hs00174131_m1 and Mm00446190_m1), Adora2A Receptor (A2AR, Assay ID Hs00169123_m1 and Mm00802075_m1), Bcl2 associated X (Bax, Assay ID Hs00180269_m1 and Mm00432051_m1), B cell lymphoma 2 (Bcl2, Assay ID Hs00608023_m1 and Mm00477631_m1), Copper transporter receptor 1 (CTR1, Assay ID Hs00741015_m1 and Mm00612987_m1), Organic cation transporter 2 (OCT2, Assay ID Hs00533907 m1 and Mm00457295_m1), ATPase 7A (ATP7A, Assay ID Hs00163707_m1 and Mm00437663_m1), ATPase 7B (ATP7B, Assay ID Hs00163739_m1 and Mm00599675_m1), Multidrug and toxin extrusion ½ (MATE1/2, Assay ID Hs00979028 m1/Hs00945652_m1 and Assay ID Mm00840361_m1/Mm02601002_m1), ATP Binding Cassette Subfamily C Member 2 (Abcc2, Assay ID Hs00166123_m1 and Mm00496899_m1) instructions. Transcript levels of PPIA (human Hs99999904_mland mouse sample Mm02342430_m1) were used as endogenous control.

SMILES: CCn1c(=O)c2c(nc(/C=C/c3ccc(OC)c(OC)c3)n2C)n(CC)c1=O [KW-6002, 8-[(E)-2-(3,4-dimethoxyphenyl)vinyl]-1,3-diethyl-7-methyl-3,7-dihydro-1H-purine-2,6-dione]
- histological lesions (histological score of renal injury) ([1]; SC model, FIG. 2H): less severe histological lesions
- mRNA levels of Tnfα ([1]; SC model, FIG. 2K, figure not given): lower mRNA levels of Tnfα
- mRNA levels of I16, change vs. cisplatin ([1]; SC model, kidney): −77.5±5.6%
- reduction of KIM-1 expression vs. cisplatin ([1]; SC model, kidney mRNA): −79.5±3.8%
- reduction of NGAL expression vs. cisplatin ([1]; SC model, kidney mRNA): −82.9±1.4%
- reduction of BUN vs. cisplatin ([1]; SC model: cisplatin 3 mg/kg i.p. six days, KW-6002 3 mg/kg i.p. daily day-5 to day 7): −70.2±5.1%
- cisplatin-induced increase in expression of Nrf2 ([1]; in vivo, subchronic model, FIG. 6D): normalized
- cisplatin-induced increase in expression of HO1 ([1]; in vivo, subchronic model, FIG. 6E): normalized
- effect on platinum accumulation in kidneys ([1]; independent experiment, animals of FIGS. 2G-2L): replicated
- cisplatin-induced cell death [2]: reduced cisplatin-induced cell death in a concentration-dependent manner
- cisplatin-induced cell death ([2]; listed as KW6002): concentration-dependently reduced cisplatin-induced cell death
- selectively modulated genes that were downregulated ([3]; among the 2497): 1016 genes
- genes selectively modulated by cisplatin/KW-6002 co-treatment vs. vehicle ([3]; out of 3923): 2497 genes
- histological lesions (histological score of renal injury) ([4]; A model, FIG. 2B): less severe histological lesions
- mRNA levels of I16, change vs. cisplatin ([4]; A model, kidney): −73.8±5.3%
- mRNA levels of Tnfα, change ([4]; A model, kidney): −36.0±4.3%
- reduction of KIM-1 expression vs. cisplatin ([4]; A model, kidney mRNA): −95.2±0.7%
- reduction of NGAL expression vs. cisplatin ([4]; A model, kidney mRNA): −55.5±5.9%
- reduction of BUN vs. cisplatin ([4]; A model: cisplatin 10 mg/kg single i.p., KW-6002 3 mg/kg i.p. daily day-1 to day 2): −42.9±7.4%
